This passage reports IC50 and selectivity ratio results from ChEMBL document CHEMBL1158975, “An antiviral sesquiterpene hydroquinone from the marine sponge Strongylophora hartmani” (J Nat Prod, 1991).

In one data set the test system is P388. Description: Cytotoxicity against mouse P388 cells by microculture tetrazolium assay. It counts as functional, cell-based.
For a further data set, the system named is Influenza A virus. Description: Antiviral activity against influenza virus A/Puerto Rico/8/34 H1N1 in MDCK cells assessed as reduction in virus-induced cytopathic effect after 3 days by neutral red uptake assay. Conditions: A/Puerto Rico/8/1934(H1N1), 72 h. The class given is functional, organism-based. (Protection from cytopathic effect is a common read-out in antiviral testing.)

The nature of data set [1]: Therapeutic index, ratio of cytotoxicity against MDCK cells to IC50 for influenza virus A/Puerto Rico/8/34 H1N1. It counts as cell-based. Conditions: dog, read-out: TI.

Molecules are shown by their SMILES. Values after ≈ are worked out from the molar mass of the structure shown.

For orientation: IC50 means the concentration that gives 50% inhibition. `COc1ccc(OC(C)=O)c2c1C[C@]1(C)[C@@H](C)CC[C@H]3C(C)(C)CCC[C@]31O2`: the results for the IC50 in the data set with P388 and in the data set on Influenza A virus were 23.8 mg/L (≈ 61.6 µM) and 5 mg/L (≈ 12.9 µM), respectively. In addition, the selectivity ratio in data set [1] was 100.

Take `COc1ccc(O)c2c1C[C@]1(C)[C@@H](C)CC[C@H]3C(C)(C)CCC[C@]31O2` [STRONGYLIN A]: the half-maximal inhibitory concentration (IC50) was found to be 13 mg/L (≈ 37.7 µM) in the data set on P388 and 6.5 mg/L (≈ 18.9 µM) in the data set on Influenza A virus. Moreover, in data set [1], the selectivity ratio turned out to be 9.
